One series has as its system HDACs. The experiment in a line: In vitro HDACi assay (BIOMOL fluorescent-based HDAC activity assay). Type of series: biochemical. The protocol:
(§1) In Vitro HDACi Assay for Determination of IC50 Values
(§2) The assay has been carried out in white 96 well formats according to the BIOMOL's method. […] The reaction mixture was incubated at room temperature for 2 hours. Flur de lys Developer was added and the reaction was incubated for 10 min. Briefly, deacetylation of the substrate sensitizes to the developer, which then generates a fluorophore. The fluorophore is excited with 360 nm light and the emitted light (460 nm) is detected on a fluorometric plate reader (Molecular Device Ultra Microplate detection system, MD Group Ltd).
(§3) The analytical software, Prism 4.0 (GraphPad Software Inc) has been used to generate IC50 from a series of data.

A further series concerns SKOV-3. The experiment in a line: Cell-based proliferation assay (SRB), SKOV-3. The settings on record: Homo sapiens, SK-OV-3, Table 3. As to the method: (§4) Cell-Based Proliferation Assay for Determination of GI50 Values
(§5) A rapid multiwell plate assay using Sulforhodamine B (SRB) protein stain was adopted to evaluate the growth inhibitory effects of the compounds of the present invention. The screening panel of cancer cell lines includes Colo205 and HCT116 colon cancer cells, MDA-MB231 and MDA-MB435 chest cancer cells, A549 lung cancer cells, and Chinese hamster ovary cell line CHO, which were obtained from ATCC.
(§6) The cell line Colo205 is grown in RPMI 1640 medium containing 2 mM L-glutamine, 5% fetal bovine serum, and 1.0 mM sodium pyruvic acid. Cell lines A549 and MDA-MB231 are grown in RPMI 1640 medium containing 2 mM L-glutamine and 5% fetal bovine serum. The cell line MDA-MB435 is grown in DMEM medium containing 2 mM L-glutamine and 5% fetal bovine serum. The cell lines HCT 116 is grown in IMEM medium containing 2 mM L-glutamine and 5% fetal bovine serum. The CHO cell line, used as a normal control on toxicity, is grown in a special medium for cell line. For a typical screening experiment, A549 and Colo205 cells are inoculated into 96-well microtiter plates, with 100 μL per well, and 2000 and 5000 cells per well respectively for either cell line. MDA-MB435, HCT116, MDA-MB231 and CHO cells are also inoculated into 96-well microtiter plates, with 6000 cells per well. After cell inoculation, the microtiter plates are incubated at 37° C., 5% CO2, and 100% relative humidity for 24 hr in order to make cells adhere to well wall.
(§7) After 24 h incubation or time zero for drug addition, with each cell line 50 μl of cold 50% (w/v) TCA is added to wells used for control to fix cells in situ. Also at time zero, cells in other wells are treated with 100 μl of compound of different concentrations for 24 hr, 48 hr, and 72 hr respectively, with varying final compound concentration (0.1 μM, 1 μM, 5 μM 10 μM). For each treatment duration at each compound concentration, there are triplicate wells, as well as an array of control wells including a blank control well (cell culture medium only, no cells), a no-compound control well (adding same volume of cell culture medium but no compound), a positive control well (treated with Suberoylanilide hydroxamic acid (SAHA)), and normal cell well control (CHO cells). Following the addition of compounds, cell plates are incubated for 24 h, 48 h or 72 h per treatment group at 37° C., 5% CO2, and 100% relative humidity. The Treatment is then terminated by addition of cold TCA and incubation of 1 hr at 4° C. The supernatant is discarded, and all wells are washed five times with de-ioned water and air dried. Then each well is added with 100 μl sulforhodamine B (SRB) solution (0.4% (w/v) made in 1% acetic acid) and cell plates are incubated for 20-30 minutes at room temperature. After staining, unbound dye is removed by washing five times with 1% acetic acid and the plates are air dried. Bound stain is subsequently solubilized with 10 mM (200 μL) Tris base with the help of 5 min platform vibration or pipetting up and down, and the absorbance is read on an automated plate reader (M5 detection system, MD Group Ltd.) at a wavelength of 565 nm (calibrated zero reading of blank control at wavelength of 690 nm). The analytical software, XL-fit has been used to generate GI50 from a series of data thus obtained.

The nature of series [1]: Microsomal stability and clearance. It counts as in vitro ADME, human, mouse. The settings on record: microsomal stability; Table 4. As to the method: Measure of Microsomal Stability and Clearance with Compounds of this Invention
Verapamil (positive control) and compound solution, both at 10 mM, are diluted 200 fold. There are six reaction time points in the experiment (0 min, 5 min, 15 min, 30 min, 45 min, and 60 min), and triplicate samples are used for each data point. There are controls for time zero and negative drug effect (negative control containing no incubation buffer or enzyme). For each compound or Verapamil sample, there are also samples treated with compound or Verapamil at concentrations of no positive effect (at 5 μM and 2.5 μM, respectively). Diluted positive control (Verapamil) and compound solution are mixed with pre-heated (37° C.) incubation buffer (100 mM potassium phosphate buffer, NADPH regeneration system solution B, NAPDH regeneration system solution A, HLM/MLM in Milli-Q ultrapure water), and incubated at 37° C. for 10 min. 100 μL of stop solution mixture is (containing 80% acetonitrile, and 20% DMSO, both of HPLC grade) is dispensed into wells of separate sampling plates into each well. At each reaction time point (0 min, 5 min, 15 min, 30 min, 45 min, and 60 min) 50 μL of reaction solution is taken from wells in the incubation plate and transferred to its corresponding well in the sampling plate, and mixed by pipetting up and down with stop solution already added there. The sampling plates are then covered, placed on ice, and centrifuged at 2,000 rpm at 4° C. for 15 min. 100 μL supernatant is then taken from each well to LC/MS analysis (or stored at 4° C. in refrigerator until analysis).
Data analysis: % remaining of compound is calculated by area of each time point with respect to time 0% remaining against time (min) curve is plotted using the first-phase exponential decay equation y=y0e(−kT) on the Prism 4.0. Results are shown in the format of TOP, K, t1/2 (min), R2 value and % remaining against time curve.

For another series, the system named is MDAMB231. The experiment in a line: Cell-based proliferation assay (SRB), MDAMB231. The settings on record: Homo sapiens, MDA-MB-231; Table 4. The protocol:
as §4, §5, §6, §7

The subject of a further series is BXPC-3. The experiment in a line: Cell-based proliferation assay (SRB), BXPC-3. The settings on record: Homo sapiens, BXPC-3, Table 3.
In a further series the test system is Colo205. The experiment in a line: Cell-based proliferation assay (SRB), Colo205. The settings on record: Homo sapiens, COLO 205, Table 3. The protocol:
as §4, §5, §6, §7

Another series relates to MDAMB435. The experiment in a line: Cell-based proliferation assay (SRB), MDAMB435. The settings on record: Homo sapiens, MDA-MB-435, Table 3. The protocol:
as §4, §5, §6, §7

The subject of another series is HL-60. The experiment in a line: Cell-based proliferation assay (SRB), HL-60. The settings on record: Homo sapiens, HL-60, Table 3.
For another series, the target named is HDAC6 (Homo sapiens (Human), UniProt Q9UBN7). The experiment in a line: In vitro HDACi assay, HDAC6. Type of series: biochemical. The settings on record: Table 3; read-out: IC50 (nM) HDAC6. The protocol: as §1, §2, §3
For another series, the system named is HCT116. The experiment in a line: Cell-based proliferation assay (SRB), HCT116. The settings on record: Homo sapiens, HCT-116, Table 3. The protocol: as §4, §5, §6, §7

Read-outs that look alike come from different tables or passages of the source.

HDAC6, sequence (Q9UBN7 whole entry, species assumed): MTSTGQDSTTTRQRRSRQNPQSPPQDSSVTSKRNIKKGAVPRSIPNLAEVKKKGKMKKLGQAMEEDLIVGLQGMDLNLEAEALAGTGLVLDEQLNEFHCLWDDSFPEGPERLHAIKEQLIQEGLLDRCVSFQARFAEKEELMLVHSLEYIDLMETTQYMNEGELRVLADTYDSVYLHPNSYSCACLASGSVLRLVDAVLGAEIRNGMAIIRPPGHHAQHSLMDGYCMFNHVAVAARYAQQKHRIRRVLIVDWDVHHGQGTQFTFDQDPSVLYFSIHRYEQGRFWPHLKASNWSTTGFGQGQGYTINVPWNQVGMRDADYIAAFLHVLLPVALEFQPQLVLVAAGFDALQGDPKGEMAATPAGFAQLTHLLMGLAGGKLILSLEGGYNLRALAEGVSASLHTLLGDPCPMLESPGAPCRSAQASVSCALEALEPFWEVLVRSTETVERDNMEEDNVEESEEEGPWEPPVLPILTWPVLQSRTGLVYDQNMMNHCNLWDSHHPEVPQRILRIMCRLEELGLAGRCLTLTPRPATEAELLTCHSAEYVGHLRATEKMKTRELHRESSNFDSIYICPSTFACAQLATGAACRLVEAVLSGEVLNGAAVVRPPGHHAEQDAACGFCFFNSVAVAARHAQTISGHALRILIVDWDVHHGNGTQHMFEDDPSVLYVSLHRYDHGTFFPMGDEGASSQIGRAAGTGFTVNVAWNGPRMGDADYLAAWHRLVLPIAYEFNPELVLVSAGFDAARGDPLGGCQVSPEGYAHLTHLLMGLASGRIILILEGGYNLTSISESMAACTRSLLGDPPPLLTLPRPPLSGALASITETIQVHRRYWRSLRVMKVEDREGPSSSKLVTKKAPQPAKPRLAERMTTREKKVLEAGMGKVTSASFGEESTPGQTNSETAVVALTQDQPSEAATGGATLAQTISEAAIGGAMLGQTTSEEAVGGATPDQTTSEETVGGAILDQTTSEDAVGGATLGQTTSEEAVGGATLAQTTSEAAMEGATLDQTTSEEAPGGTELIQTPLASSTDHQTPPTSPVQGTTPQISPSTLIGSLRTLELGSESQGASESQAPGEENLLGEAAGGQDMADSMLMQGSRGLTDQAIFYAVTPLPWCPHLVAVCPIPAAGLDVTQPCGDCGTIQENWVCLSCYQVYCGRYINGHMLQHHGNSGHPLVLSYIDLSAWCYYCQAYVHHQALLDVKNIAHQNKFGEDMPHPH

As for `CCN(CC)CCSc1ccc(/C=C/C(=O)NO)cc1[N+](=O)[O-]` [Example 5, 3-(4-(2-(diethylamino)ethylthio)-3-nitrophenyl)-N-hydroxy-acrylamide], the concentration for half-maximal inhibition (IC50) in the series on HDACs (Table 3, read-out: IC50 (nM) HDACs) was determined as 86 nM; in the series with HDACs (Table 4, read-out: HDAC enzyme inhibition activity IC50), 35000 nM; at HDAC6, 313 nM. Moreover, the GI50 with SKOV-3 was 0.7 µM; in the series with MDAMB231, 1.92 µM; in the series on BXPC-3 it was 95.4 µM; in the series on Colo205, 2 µM; with MDAMB435, 3.56 µM; in the series on HL-60 it was 1.63 µM. The compound further came in with a concentration for 50% growth inhibition (GI50) with HCT116 of 2.02 µM. In [1], this compound showed a half-life of 2.2 h.

Source of the values: US8921424B2, “Histone deacetylase inhibitors, process for preparation and uses thereof” (Zhejiang Hisun Pharmaceutical Co. Ltd., priority 2007, dated 2014).
